In US11458189B2, “Cytoprotective drugs” (BALMES TRANSPLANTATION, priority 2017, dated 2022):
Starred links: 1 amine or outer side, 2 acyl side, 3 side chain; linkers in the order of their positions; H or OH if unused. Positions of bridges follow the written chain, without caps; N, C: chain ends. Non-standard residues stand in square brackets, D forms with d. Residues, ends and D or L forms follow the SMILES beside them. *: point of attachment. hTyr(3S-OH,4S-OH,3'-OSO3H) = N[C@H](C(=O)O)[C@H](O)[C@@H](O)c1ccc(O)c(OS(=O)(=O)O)c1; Orn(4R-OH,5R-OH) = O=C([C@H](C[C@@H](O)[C@@H](O)N[*:3])N[*:1])[*:2]; Pro(3S-OH,4S-Me) = C[C@H]1CN[C@H](C(=O)O)[C@H]1O; X1 = CCCCCOc1ccc(-c2cc(-c3ccc(C(=O)*)cc3)no2)cc1; Gln(3R-OH) = NC(=O)C[C@@H](O)[C@H](N)C(=O)O; Hyp = O=C(O)[C@@H]1C[C@@H](O)CN1

Tested on: Human Hepatic Sinusoidal Endothelial Cells (HHSEC)
Experiment: Oxygen and glucose deprivation followed by replenishment, cell survival (calcein AM), HHSEC
Assay type: cell-based
Procedure: Anidulafungin and micafungin were tested on Human Renal Glomerular Endothelial Cells (HRGEC, Innoprot P10665), on Human Renal Proximal Tubular Epithelial Cells (HRPTEpiC, Innoprot P10662), on Human Astrocytes (HA, caltag SC-1800), on Human Cardiac Microvascular Endothelial Cells (HCMEC, Caltag SC-6000), on Human Hepatic Sinusoidal Endothelial Cells (HHSEC, Caltag SC-5000), on Rat Primary Kidney Glomerular Endothelial cells (Cellbiologics, RN-6014G) and on Bovine Brain Microvascular Endothelial Cells (BBMEC, Caltag SC-B100).
In a first phase, these isolated, purified and cryopreserved cells are thawed and multiplied according to the supplier's recommendations in T75 or T175 flasks pre-coated with 2 μg of fibronectin/[…] (CORNING) for HRGEC, HCMEC, HHSEC and BBMEC, or 2 μg poly-L-lysin/cm^2 (Caltag SC-0403) for HRPTEpiC and HA, or 15 mL/flask 175 cm^2 gelatin-based solution (Cellbiologics) in the presence of endothelial cell supplemented growth medium ECM (P60104, INNOPROT, Caltag, SC-1001) for HRGEC, HCMEC, HHSEC, RPKGEC or BBMEC, or astrocyte cell supplemented growth medium AM (Caltag SC-1801) for HA or epithelial cell supplemented growth medium EpiCM (P60106, INNOPROT) for HRPTEpiC, at 37° C. under 5% CO2 and saturated humidity until their confluency. They are then harvested by trypsinization according to the method described by the supplier for exactly 5 minutes and then reseeded in new flasks a maximum of three times.
To carry out the oxygen and glucose deprivation test followed by their replenishment, the cells will be seeded in 96-well black plates with transparent flat bottom (GREINER). Once a sufficient number of cells has been obtained to allow seeding of 2000 to 15000 cells per well of 96-well plates depending on the cell type, the cells are seeded in these 96-well plates previously coated with an extracellular matrix as listed above for the flasks. The cells are cultured for 5 to 8 days according to the cell type, in the presence of the same growth medium as in the flask as described above except for HRGEC and HRPTEpiC for which DMEM (DUTSCHER) with 1 g/L of supplemented glucose is used, at 37° C. under 5% CO2 and saturated humidity to obtain confluency.
On the first day of oxygen and glucose deprivation, (5th, 6th, 7th or 8th day of culture), the culture conditions are drastically changed. The medium of all plates is removed and replaced by DMEM (DUTSCHER) medium without glucose and supplemented only with 1% penicillin-streptomycin (DUTSCHER). Anidulafungin or micafungin dissolved in dimethyl sulfoxide (DMSO) is then added to each well at the desired concentration, resulting in a maximum of 1% DMSO, and the plates are placed under hypoxia at <1% 02 and 5% CO2 at 37° C. for 24 hours of culture. Each compound was tested in a concentration range.
After 24 hours, the growth medium is changed and replaced by a richer medium, DMEM (DUTSCHER) at 1 g/L glucose and 2% FBS (INNOPROT) and 1% penicillin-streptomycin (DUTSCHER). These media will have been pre-equilibrated at 37° C. in advance. The cells are then returned to culture at 37° C. under 20% 02 and 5% CO2 for 22h.
After 22 hours of reoxygenation, the potential protective effect of anidulafungin or micafungin is measured by a cell viability test using calcein AM (CORNING), which is a dye substrate. The calcein AM can easily cross the cell membrane of the viable cells. The AM ester groups mask the part of the molecule that chelates calcium. Once inside the cells, the (non-fluorescent) calcein AM is hydrolyzed to (fluorescent) calcein by endogenous esterases. The resulting calcein molecule binds to calcium inside the cell and remains trapped inside the cell. These molecules emit strong green fluorescence when subjected to […] of a particular wavelength (495 nm). Since dead cells lack esterase activity, only living cells are labelled.
This cell viability test is performed in two steps. […]

[1] = [Micafungin] log μM 0 (first line printed 0, r12)
[2] = [Micafungin] log μM 0 (second line printed 0, r14)

SMILES: CCCCCOc1ccc(-c2cc(-c3ccc(C(=O)N[C@H]4C[C@@H](O)[C@@H](O)NC(=O)[C@@H]5[C@@H](O)[C@@H](C)CN5C(=O)[C@H]([C@H](O)CC(N)=O)NC(=O)[C@H]([C@H](O)[C@@H](O)c5ccc(O)c(OS(=O)(=O)O)c5)NC(=O)[C@@H]5C[C@@H](O)CN5C(=O)[C@H]([C@@H](C)O)NC4=O)cc3)no2)cc1 [Micafungin, {5-[(1S,2S)-2-[(3S,6S,9S,11R,15S,18S,20R,21R,24S,25S,26S)-3-[(1R)-2-carbamoyl-1-hydroxyethyl]-11,20,21,25-tetrahydroxy-15-[(1R)-1-hydroxyethyl]-26-methyl-2,5,8,14,17,23-hexaoxo-18-[(4-{5-[4-(pentyloxy)phenyl]-1,2-oxazol-3-yl}benzene)amido]-1,4,7,13,16,22-hexaazatricyclo[22.3.0.0]heptacosan-6-yl]-1,2-dihydroxyethyl]-2-hydroxyphenyl}oxidanesulfonic acid] (X1-[Orn(4R-OH,5R-OH)]T[Hyp][hTyr(3S-OH,4S-OH,3'-OSO3H)][Gln(3R-OH)][Pro(3S-OH,4S-Me)]; lactam 1-C)
- Globalfluo assay 1 [1]: 2600496 arbitrary units
- Globalfluo assay 2 [1]: 2592730 arbitrary units
- Globalfluo assay 3 [1]: 2666315 arbitrary units
- Mean globalfluo [1]: 2619847 arbitrary units
- Survival rate (%) [1]: 0%
- Globalfluo assay 1 [2]: 3063920 arbitrary units
- Globalfluo assay 2 [2]: 2647280 arbitrary units
- Globalfluo assay 3 [2]: 2608353 arbitrary units
- Mean globalfluo [2]: 2773184 arbitrary units
- Survival rate (%) [2]: 1%
- Globalfluo assay 1 ([Micafungin] log μM 0.4771213): 2619032 arbitrary units
- Globalfluo assay 2 ([Micafungin] log μM 0.4771213): 2696453 arbitrary units
- Globalfluo assay 3 ([Micafungin] log μM 0.4771213): 2858592 arbitrary units
- Mean globalfluo ([Micafungin] log μM 0.4771213): 2724692 arbitrary units
- Survival rate (%) ([Micafungin] log μM 0.4771213): 1%
- Globalfluo assay 1 ([Micafungin] log μM 0.7781513): 2942319 arbitrary units
- Globalfluo assay 2 ([Micafungin] log μM 0.7781513): 3052699 arbitrary units
- Globalfluo assay 3 ([Micafungin] log μM 0.7781513): 2975927 arbitrary units
- Mean globalfluo ([Micafungin] log μM 0.7781513): 2990315 arbitrary units
- Survival rate (%) ([Micafungin] log μM 0.7781513): 2%
- Globalfluo assay 1 ([Micafungin] log μM 0.90309): 2800146 arbitrary units
- Globalfluo assay 2 ([Micafungin] log μM 0.90309): 3162662 arbitrary units
- Globalfluo assay 3 ([Micafungin] log μM 0.90309): 3203256 arbitrary units
- Mean globalfluo ([Micafungin] log μM 0.90309): 3055355 arbitrary units
- Survival rate (%) ([Micafungin] log μM 0.90309): 3%
- Globalfluo assay 1 ([Micafungin] log μM 1): 3210890 arbitrary units
- Globalfluo assay 2 ([Micafungin] log μM 1): 3369543 arbitrary units
- Globalfluo assay 3 ([Micafungin] log μM 1): 2819931 arbitrary units
- Mean globalfluo ([Micafungin] log μM 1): 3133455 arbitrary units
- Survival rate (%) ([Micafungin] log μM 1): 3%
- Globalfluo assay 1 ([Micafungin] log μM 1.079181): 3383806 arbitrary units
- Globalfluo assay 2 ([Micafungin] log μM 1.079181): 3457745 arbitrary units
- Globalfluo assay 3 ([Micafungin] log μM 1.079181): 3493598 arbitrary units
- Mean globalfluo ([Micafungin] log μM 1.079181): 3445050 arbitrary units
- Survival rate (%) ([Micafungin] log μM 1.079181): 5%
- Globalfluo assay 1 ([Micafungin] log μM 1.176091): 3454603 arbitrary units
- Globalfluo assay 2 ([Micafungin] log μM 1.176091): 3676802 arbitrary units
- Globalfluo assay 3 ([Micafungin] log μM 1.176091): 3618017 arbitrary units
- Mean globalfluo ([Micafungin] log μM 1.176091): 3583141 arbitrary units
- Survival rate (%) ([Micafungin] log μM 1.176091): 6%
- Globalfluo assay 1 ([Micafungin] log μM 1.30103): 3383992 arbitrary units
- Globalfluo assay 2 ([Micafungin] log μM 1.30103): 2974781 arbitrary units
- Globalfluo assay 3 ([Micafungin] log μM 1.30103): 3188414 arbitrary units
- Mean globalfluo ([Micafungin] log μM 1.30103): 3182396 arbitrary units
- Survival rate (%) ([Micafungin] log μM 1.30103): 3%
- Globalfluo assay 1 ([Micafungin] log μM −2): 2651037 arbitrary units
- Globalfluo assay 2 ([Micafungin] log μM −2): 2880244 arbitrary units
- Globalfluo assay 3 ([Micafungin] log μM −2): 2908835 arbitrary units
- Mean globalfluo ([Micafungin] log μM −2): 2813372 arbitrary units
- Survival rate (%) ([Micafungin] log μM −2): 1%
